Publication PMC7822874, “Chemoprotective antimalarials identified through quantitative high-throughput screening of Plasmodium blood and liver stage parasites” (Scientific Reports, 2021)
Values joined by “and” are separate entries in the source; they are usually repeats but may differ in a detail not shown here. Identical values can stand only once. Like-named read-outs stand apart in the source and are kept apart here.

Assays:
[1] = system: T1, Plasmodium falciparum Dd2-attB (parental line), asexual blood stages; test: microbe, parasite or virus in culture; set-up: replicate k of 3 (each line is one of three independent assays; the three lines of one compound and parasite line follow each other); settings: n = 1; for Individual replicates / Log AC50 (M): 72 h; for AC50: Plasmodium falciparum, DD2, 72 h
T1 construct: Dd2-attB, the isogenic parental line
Protocol: (§1) The overexpression of the fumarate-dependent yeast DHODH confers resistance to compounds that inhibit the parasite mETC, or the parasite DHODH enzyme that depends on ubiquinone provided by the parasite mETC. Assays were performed in three independent assays on a subset of compounds, and differences between the Dd2-attB parental line and the ScDHODH transgenic line were analyzed using two-sided Student’s t-tests.

[2] = system: T2, Plasmodium falciparum Dd2-attB-ScDHODH (transgenic line expressing yeast DHODH), asexual blood stages; test: organism not typed; set-up: replicate k of 3 (each line is one of three independent assays; the three lines of one compound and parasite line follow each other)
T2 construct: Dd2-attB-ScDHODH, the transgenic line that expresses yeast DHODH
Protocol: as §1

[3] = read-out: Individual replicates / Log AC50 (converted)
[4] = 72 h; n = 1; read-out: Individual replicates / Log AC50 (converted)

| Compound | Individual replicates / Log AC50 (M) [1] | AC50 [1, 3] [M] | Individual replicates / Log AC50 (M) ([2]; 72 h, n = 1) | AC50 [2, 4] [µM] | Individual replicates / Log AC50 (M) ([2]; 72 h; n = 1) | AC50 ([1]; read-out: Individual replicates / Log AC50 (M) (converted)) |
| --- | --- | --- | --- | --- | --- | --- |
| CN(C)c1ccc(-c2cc(O)c3ncccc3c2)cc1 [NCGC00183795-01] | -5.0986 Log AC50 (M) and -5.1486 Log AC50 (M) | 8.94e-06 | -4.7486 Log AC50 (M) and -4.9986 Log AC50 (M) |  |  |  |
| Oc1ccc(CNc2ccccc2C(F)(F)F)c2cccnc12 [NCGC00184897-01] | -4.8986 Log AC50 (M) and -4.7986 Log AC50 (M) | 1.26e-05 | -4.8486 Log AC50 (M) and -4.7486 Log AC50 (M) | 15.9 |  |  |
| O=C(O)c1ccc(O)c2ncc(NC3CCNC3)cc12 (stereo not shown) [NCGC00241039-01] | -4.7486 Log AC50 (M) and -4.7986 Log AC50 (M) | 2e-05 | -4.8486 Log AC50 (M) and -4.6486 Log AC50 (M) | 20 |  |  |
| O=C(NCCCCCN1CCOCC1)c1cccc(-c2cc(O)c3ncccc3c2)c1 [NCGC00249387-01] | -4.9986 Log AC50 (M) | 7.1e-06 | -4.6986 Log AC50 (M) and -5.0486 Log AC50 (M) and -4.7986 Log AC50 (M) |  |  |  |
| NC(=O)c1csc(-n2cc(Cc3ccc([S+](N)(=O)[O-])cc3)c(-c3cccc(-c4ccccc4)c3)n2)n1 [NCGC00390757-01] | -4.9986 Log AC50 (M) and -4.8486 Log AC50 (M) | 2e-05 |  |  |  |  |
| O=C(O)c1ccc(O)c2ncc(N3CCCNCC3)cc12 [NCGC00241047-01] | -4.8986 Log AC50 (M) and -4.8486 Log AC50 (M) | 1.59e-05 | -4.7986 Log AC50 (M) | 15.9 |  |  |
| COc1cc(CN2CCc3nc(N4CCN(c5ncccn5)CC4)ncc3C2)cc(OC)c1OC [NCGC00131437-02] | -5.3486 Log AC50 (M) and -5.1486 Log AC50 (M) | 5.64e-06 | -5.1486 Log AC50 (M) and -5.0986 Log AC50 (M) | 7.1 |  |  |
| CC(C)c1c(-c2cnn(C(C)(C)C)c2)[nH]c2c(C#N)cnn2c1=O [NCGC00488278-03] | -4.7486 Log AC50 (M) |  | -4.8986 Log AC50 (M) |  |  |  |
| Cc1nnc2c3ccccc3nc(N3CCN(c4ccccc4)CC3)n12 [NCGC00107295-02] | -4.8986 Log AC50 (M) and -4.9986 Log AC50 (M) |  |  |  |  |  |
| CCOC(=O)CCNc1cc(N2CCc3ccccc3CC2)nc(-c2ccccn2)n1 [NCGC00344626-04] | -5.2986 Log AC50 (M) and -5.2486 Log AC50 (M) and -5.0486 Log AC50 (M) |  | -5.2986 Log AC50 (M) and -4.9486 Log AC50 (M) |  |  |  |
| O=[S+]([O-])(Nc1ccc(O)c2ncccc12)c1ccccc1F [NCGC00184887-01] | -5.0986 Log AC50 (M) and -5.1486 Log AC50 (M) | 1.42e-05 |  | 14.2 |  |  |
| CN(C)CCCCNC(=O)c1cccc(-c2cc(O)c3ncccc3c2)c1 [NCGC00244528-01] | -4.8986 Log AC50 (M) and -4.8486 Log AC50 (M) | 1.78e-05 | -4.7486 Log AC50 (M) | 15.9 |  |  |
| Oc1ccc(CNc2ccc(F)cc2F)c2cccnc12 [NCGC00184894-01] | -4.9486 Log AC50 (M) and -5.0486 Log AC50 (M) | 1.42e-05 | -4.8486 Log AC50 (M) | 17.8 |  |  |
| Cc1ccc(NCc2ccc(O)c3ncccc23)c(F)c1 [NCGC00184895-01] | -4.7986 Log AC50 (M) | 1.78e-05 | -4.7486 Log AC50 (M) | 15.9 |  |  |
| COC(=O)c1ccc(O)c2ncc(N3CC[C@H](N)C3)cc12 [NCGC00241042-01] | -4.9986 Log AC50 (M) and -4.8486 Log AC50 (M) | 1.78e-05 | -4.7486 Log AC50 (M) | 17.8 |  |  |
| Cc1cccc(CN2CCCn3nc(C)c(-c4ccccc4OCc4ccccc4)c32)n1 [NCGC00499716-01] | -4.8986 Log AC50 (M) and -4.7486 Log AC50 (M) | 1.59e-05 | -4.8486 Log AC50 (M) | 12.6 |  |  |
| Oc1ccc(CNc2ccc3ccccc3n2)c2cccnc12 [NCGC00241029-01] | -4.8986 Log AC50 (M) and -5.0486 Log AC50 (M) | 7.1e-06 | -4.8986 Log AC50 (M) | 7.1 |  |  |
| CN(C)CCn1nc(-c2ccccc2O)nc1-c1ccccc1 [NCGC00390082-01] | -4.7486 Log AC50 (M) and -4.8486 Log AC50 (M) | 1.42e-05 | -4.7986 Log AC50 (M) | 12.6 |  |  |
| CN(C)[S+](=O)([O-])c1cccc(-c2cc(O)c3ncccc3c2)c1 [NCGC00247754-01] | -5.2986 Log AC50 (M) | 5.64e-06 | -5.2986 Log AC50 (M) and -5.1486 Log AC50 (M) | 5.03 |  |  |
| O=C(O)c1ccnc(-n2ncc(C(OCCN3CCCCC3)c3ccc(Cl)cc3)c2-c2ccccc2)c1 (stereo not shown) [NCGC00487049-01] | -4.7986 Log AC50 (M) and -4.8486 Log AC50 (M) | 1.59e-05 | -4.7486 Log AC50 (M) | 15.9 |  |  |

| Compound | Individual replicates / Log AC50 (M) [1] | AC50 [1, 3] [M] | Individual replicates / Log AC50 (M) ([2]; 72 h, n = 1) | AC50 [2, 4] [µM] | Individual replicates / Log AC50 (M) ([2]; 72 h; n = 1) | AC50 ([1]; read-out: Individual replicates / Log AC50 (M) (converted)) |
| --- | --- | --- | --- | --- | --- | --- |
| Cc1ccc(CN2C(=O)C(O)(CC(=O)c3ccc(C)cc3)c3ccccc32)cc1 (stereo not shown) [NCGC00099997-03] |  | 1.78e-05 |  |  |  |  |
| CN1CCN(c2cnc3c(O)ccc(C(=O)O)c3c2)CC1 [NCGC00241033-01] | -4.8986 Log AC50 (M) and -4.9486 Log AC50 (M) | 1.78e-05 |  |  |  |  |
| c1ccc(CCn2nc(-c3cnccn3)nc2CCCN2CCCCC2)cc1 [NCGC00390063-01] |  | 7.97e-06 |  |  |  |  |
| O=C(O)c1ccc(O)c2ncc(N3CCN(Cc4ccccc4)CC3)cc12 [NCGC00241045-04] | -4.6986 Log AC50 (M) and -4.7986 Log AC50 (M) (2×) |  |  |  |  |  |
| O=C(NCCCN1CCNCC1)c1cccc(-c2cc(O)c3ncccc3c2)c1 [NCGC00244531-01] |  | 1.59e-05 |  |  |  |  |
| CCOC(=O)c1ccncc1Nc1nn(CCN2CCC(F)(F)CC2)c2ccc(F)cc12 [NCGC00388588-01] | -4.7486 Log AC50 (M) and -4.7986 Log AC50 (M) | 1.59e-05 |  |  |  |  |
| O=C(NCCCN1CC[S+](=O)([O-])CC1)c1cccc(-c2cc(O)c3ncccc3c2)c1 [NCGC00249378-01] |  |  |  | 20 | -4.6986 Log AC50 (M) |  |
| O=C(c1ccccc1F)N1c2nc(-c3ccco3)nn2C2(CCCCC2)[C@@H]2CCCC[C@@H]21 [NCGC00118206-02] | -4.7986 Log AC50 (M) | 1.59e-05 |  |  |  |  |
| Cc1nn2c(c1-c1ccccc1-c1ccccc1)N(Cc1ccccc1)CCC2 [NCGC00420451-02] |  | 1.59e-05 |  |  |  |  |
| c1ccc(CN2CCCn3ncc(-c4ccccc4-c4ccccc4)c32)cc1 [NCGC00499205-01] | -4.8486 Log AC50 (M) | 1.59e-05 |  |  |  |  |
| COc1ccc(NC(=O)CN2C(=O)CCn3nc(-c4cccn4C)cc32)cc1Cl [NCGC00132050-02] | -4.9986 Log AC50 (M) | 8.94e-06 |  |  |  |  |
| Cc1cccc(N2CCN(C(=O)Cn3ncc4c3-c3ccccc3OC4)CC2)c1C [NCGC00112661-02] |  | 1.42e-05 |  |  |  |  |
| O=C(NC1CC1)c1cccc(-c2cc(O)c3ncccc3c2)c1 [NCGC00247738-01] |  |  |  |  |  | 1.78e-05 |
| CN1CCC(CNCc2nccc3c(=O)[nH]c(COc4ccc(Cc5ccccc5)cc4)nc23)C1 (stereo not shown) [NCGC00489856-02] | -4.7486 Log AC50 (M) |  |  |  |  |  |
| Cc1nn2c(c1-c1ccnn1C(C)C)N(CCCc1ccccc1)CCC2 [NCGC00499719-01] |  |  |  | 17.8 |  |  |
| O=C(O)c1ccc(O)c2ncc(N3CCN(Cc4ccccc4)CC3)cc12 [NCGC00241045-03] |  | 1.78e-05 |  |  |  |  |
| CN(C)CCCCCCNC(=O)c1cccc(-c2cc(O)c3ncccc3c2)c1 [NCGC00247743-01] |  | 2e-05 |  |  |  |  |
| CCOC(=O)CCNc1cc(N2CCc3ccccc3CC2)nc(-c2ccccn2)n1 [NCGC00344626-02] | -5.0486 Log AC50 (M) and -5.0986 Log AC50 (M) | 6.33e-06 |  |  |  |  |
| O=C(O)c1ccc(O)c2ncc(N3CCCCC3CCc3ccccn3)cc12 (stereo not shown) [NCGC00241756-01] |  | 2e-05 |  |  |  |  |
